Source: PubChem BioAssay AID328 (DTP/NCI, 2004)
Where “and” joins values, the source holds several entries; their conditions need not be identical. Equal entries are not always repeated. Toxic doses and inconclusive results are not listed.

Test system: BDF1 mice, P388 leukemia ip, median survival T/C
Experiment: NCI In Vivo Anticancer Drug Screen. Data for tumor model P388 Leukemia (intraperitoneal) in B6D2F1 (BDF1) mice
Details: endpoint: median survival time, higher = longer survival
How it was run: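 Transplantable tumour in mice; compound vs vehicle dosing; survival scored; ratio of treated to control reported.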

[1] = dose: 50.0 mg/kg/injection, schedule: Q04DX003 (ip), vehicle: saline with Tween-80
[2] = dose: 100.0 mg/kg/injection, schedule: Q04DX003 (ip), vehicle: saline with Tween-80
[3] = dose: 100.0 mg/kg/injection, schedule: Q04DX002 (ip), vehicle: saline with Tween-80
[4] = dose: 200.0 mg/kg/injection, schedule: Q04DX002 (ip), vehicle: saline with Tween-80
[5] = dose: 100.0 mg/kg/injection, schedule: Q01DX009 (ip), vehicle: saline with Tween-80
[6] = dose: 200.0 mg/kg/injection, schedule: Q01DX009 (ip), vehicle: saline with Tween-80
[7] = dose: 25.0 mg/kg/injection, schedule: Q01DX009 (ip), vehicle: saline
[8] = dose: 50.0 mg/kg/injection, schedule: Q01DX009 (ip), vehicle: saline
[9] = dose: 100.0 mg/kg/injection, schedule: Q01DX009 (ip), vehicle: saline
[10] = dose: 200.0 mg/kg/injection, schedule: Q01DX009 (ip), vehicle: saline
[11] = dose: 100.0 mg/kg/injection, schedule: Q01DX001 (ip), vehicle: saline with Tween-80
[12] = dose: 50.0 mg/kg/injection, schedule: Q01DX009 (ip), vehicle: Klucel (hydroxypropylcellulose) (HPC)
[13] = dose: 100.0 mg/kg/injection, schedule: Q04DX003 (ip), vehicle: Klucel (hydroxypropylcellulose) (HPC)
[14] = dose: 200.0 mg/kg/injection, schedule: Q04DX003 (ip), vehicle: Klucel (hydroxypropylcellulose) (HPC)
[15] = dose: 400.0 mg/kg/injection, schedule: Q04DX003 (ip), vehicle: Klucel (hydroxypropylcellulose) (HPC)
[16] = dose: 100.0 mg/kg/injection, schedule: Q04DX003 (ip), vehicle: saline
[17] = dose: 200.0 mg/kg/injection, schedule: Q04DX003 (ip), vehicle: saline
[18] = dose: 400.0 mg/kg/injection, schedule: Q01DX009 (ip), vehicle: saline with Tween-80
[19] = dose: 400.0 mg/kg/injection, schedule: Q04DX003 (ip), vehicle: saline
[20] = dose: 12.5 mg/kg/injection, schedule: Q04DX002 (ip), vehicle: saline
[21] = dose: 50.0 mg/kg/injection, schedule: Q01DX009 (ip), vehicle: saline with Tween-80

For `CCOC(=O)c1ccc(NC(N)=O)cc1`, the T/C (dose: 25.0 mg/kg/injection, schedule: Q04DX003 (ip), vehicle: saline with Tween-80) was 100 % of control, the T/C [1] was 102 % of control and the T/C [2] was 99 % of control.
For `COc1ccc(O)c(/C=C/c2cc[n+](C)cc2)c1`, the T/C [3] was 91 % of control and the T/C [4] was 97 % of control.
For `Cc1cc(C)c(N)c(Br)c1C`, the T/C [5] was 100 % of control and the T/C [6] was 87 % of control.
`NC(=O)NO` was tested, and the T/C (dose: 31.3 mg/kg/injection, schedule: Q01DX010 (ip), vehicle: saline) was 100 % of control, the T/C (dose: 62.5 mg/kg/injection, schedule: Q01DX010 (ip), vehicle: saline) was 100 % of control and the T/C (dose: 125.0 mg/kg/injection, schedule: Q01DX010 (ip), vehicle: saline) was 100 % of control. For the same compound, the T/C (dose: 250.0 mg/kg/injection, schedule: Q01DX010 (ip), vehicle: saline) was 100 % of control, the T/C (dose: 500.0 mg/kg/injection, schedule: Q01DX010 (ip), vehicle: saline) was 150 % of control and the T/C (dose: 750.0 mg/kg/injection, schedule: Q01DX009 (ip), vehicle: saline) was 100 % of control.
`CS(=O)(=O)Nc1ccc(C(=O)CCN2CCCCCC2)cc1` was tested, and the T/C [7] was 108 % of control and 110 % of control, the T/C [8] was 110 % of control and 112 % of control and 113 % of control and the T/C [9] was 117 % of control. For the same compound, the T/C [10] was 117 % of control.
With `O=C(O)c1cc([N+](=O)[O-])cc([N+](=O)[O-])c1` (tested in a mixture with another compound) the T/C (dose: 3.13 mg/kg/injection, schedule: Q04DX002 (ip), vehicle: saline with Tween-80) was 100 % of control, the T/C (dose: 6.25 mg/kg/injection, schedule: Q04DX002 (ip), vehicle: saline with Tween-80) was 108 % of control and the T/C (dose: 12.5 mg/kg/injection, schedule: Q04DX002 (ip), vehicle: saline with Tween-80) was 104 % of control. For the same compound, the T/C (dose: 25.0 mg/kg/injection, schedule: Q04DX002 (ip), vehicle: saline with Tween-80) was 112 % of control.
`COCc1ccc([N+](=O)[O-])cc1` was tested, and the T/C (dose: 25.0 mg/kg/injection, schedule: Q01DX001 (ip), vehicle: saline with Tween-80) was 101 % of control, the T/C (dose: 50.0 mg/kg/injection, schedule: Q01DX001 (ip), vehicle: saline with Tween-80) was 95 % of control and the T/C [11] was 96 % of control and 107 % of control.
For `Cc1ccc(CCO)c(C)c1`, the T/C [12] was 95 % of control, the T/C (dose: 100.0 mg/kg/injection, schedule: Q01DX009 (ip), vehicle: Klucel (hydroxypropylcellulose) (HPC)) was 109 % of control and the T/C [13] was 100 % of control. For the same compound, the T/C (dose: 200.0 mg/kg/injection, schedule: Q01DX009 (ip), vehicle: Klucel (hydroxypropylcellulose) (HPC)) was 90 % of control, the T/C [14] was 90 % of control and the T/C (dose: 400.0 mg/kg/injection, schedule: Q01DX009 (ip), vehicle: Klucel (hydroxypropylcellulose) (HPC)) was 113 % of control. For the same compound, the T/C [15] was 100 % of control.
For `O=C1NC(=O)C(=O)N1`, the T/C (dose: 100.0 mg/kg/injection, schedule: Q01DX001 (ip), vehicle: saline) was 109 % of control, the T/C [5] was 100 % of control and the T/C [9] was 100 % of control. The T/C [16] was 110 % of control, the T/C (dose: 200.0 mg/kg/injection, schedule: Q01DX001 (ip), vehicle: saline) was 100 % of control and the T/C [6] was 104 % of control. The T/C [10] was 100 % of control, the T/C [17] was 95 % of control and the T/C (dose: 400.0 mg/kg/injection, schedule: Q01DX001 (ip), vehicle: saline) was 100 % of control. For the same compound, the T/C [18] was 95 % of control, the T/C (dose: 400.0 mg/kg/injection, schedule: Q01DX009 (ip), vehicle: saline) was 100 % of control and the T/C [19] was 120 % of control.
For `CCCC1([N+](C)(C)C)CSC1CC` (stereo not given), the T/C [20] was 105 % of control, the T/C (dose: 25.0 mg/kg/injection, schedule: Q04DX002 (ip), vehicle: saline) was 103 % of control and the T/C (dose: 50.0 mg/kg/injection, schedule: Q04DX002 (ip), vehicle: saline) was 96 % of control.
For `CC1(C)N=C(N)N=C(N)N1c1ccc(CNC(=O)Nc2ccc(S(=O)(=O)F)cc2)cc1`, the T/C [9] was 115 % of control, the T/C [16] was 150 % of control and the T/C (dose: 132.0 mg/kg/injection, schedule: Q04DX003 (ip), vehicle: saline) was 181 % of control and 190 % of control. For the same compound, the T/C [10] was 100 % of control, the T/C [17] was 150 % of control and 177 % of control and 205 % of control and the T/C (dose: 300.0 mg/kg/injection, schedule: Q04DX003 (ip), vehicle: saline) was 230 % of control and 154 % of control. The T/C [19] was 163 % of control.
In the case of `C[N+](C)(C)c1ccc2c(c1)CCC/C2=N\N`, the T/C (dose: 6.25 mg/kg/injection, schedule: Q04DX003 (ip), vehicle: saline with Tween-80) is reported as 94 % of control.
`NC(N)=NC(N)=Nc1ccc(S(=O)(=O)O)cc1` was tested, and the T/C [5] was 103 % of control, the T/C [6] was 97 % of control and the T/C [18] was 94 % of control.
With `Cc1ccc(S(=O)(=O)[O][Pb]([CH3])([CH3])[CH3])cc1` the T/C (dose: 1.5 mg/kg/injection, schedule: Q01DX009 (ip), vehicle: saline) was 103 % of control.
In the case of `ClCCN(CCCl)CCOc1ccc(-c2nc3ccccc3[nH]2)cc1`, the T/C [20] is reported as 189 % of control.
In the case of `Cc1ccc(C)c(NC(=O)c2ccc(Cl)cc2)c1`, the T/C [11] is reported as 104 % of control, the T/C (dose: 200.0 mg/kg/injection, schedule: Q01DX001 (ip), vehicle: saline with Tween-80) is reported as 104 % of control and the T/C (dose: 400.0 mg/kg/injection, schedule: Q01DX001 (ip), vehicle: saline with Tween-80) is reported as 100 % of control.
In the case of `C/C(=C\n1ccccc1=N)C(=O)c1ccc(F)cc1`, the T/C [13] is reported as 95 % of control, the T/C [14] is reported as 90 % of control and the T/C [15] is reported as 104 % of control.
With `CCCCC1C(=O)OC(C(C)C(O)CCCN=C(N)N)C(C)C=C(C)CCCCC(O)CC(O)CC(O)CC(O)CC(O)C(OC2OC(CO)C(O)C2O)C=C(C)C(O)CCCC(O)CCCC(O)CCC(C)C1O` (stereo not given) the T/C (dose: 0.3 mg/kg/injection, schedule: Q01DX010 (ip), vehicle: carboxymethylcellulose (CMC)) was 90 % of control, the T/C (dose: 0.6 mg/kg/injection, schedule: Q01DX010 (ip), vehicle: carboxymethylcellulose (CMC)) was 90 % of control and the T/C (dose: 1.2 mg/kg/injection, schedule: Q01DX010 (ip), vehicle: carboxymethylcellulose (CMC)) was 95 % of control. The T/C (dose: 2.5 mg/kg/injection, schedule: Q01DX010 (ip), vehicle: carboxymethylcellulose (CMC)) was 90 % of control.
For `CCCCC[C@@H](CN(C)C)[C@H](O)/C=C/c1ccc(Cl)cc1`, the T/C [12] was 96 % of control.
`C#CC(C)OCC(O)CCl` (stereo not given) was tested, and the T/C [7] was 100 % of control, the T/C [8] was 118 % of control and the T/C [9] was 109 % of control. For the same compound, the T/C [16] was 108 % of control, the T/C [17] was 104 % of control and the T/C [19] was 108 % of control.
`Cn1c(/N=C(/N)N=C(N)N)cc(=O)n(C)c1=O` was tested, and the T/C (dose: 50.0 mg/kg/injection, schedule: Q04DX003 (ip), vehicle: saline) was 104 % of control, the T/C [16] was 100 % of control and the T/C [17] was 95 % of control.
With `OCc1ccn2c1C(O)CC2` (stereo not given) the T/C (dose: 12.5 mg/kg/injection, schedule: Q01DX009 (ip), vehicle: other) was 112 % of control, the T/C (dose: 25.0 mg/kg/injection, schedule: Q01DX009 (ip), vehicle: other) was 102 % of control and the T/C [7] was 115 % of control. For the same compound, the T/C (dose: 50.0 mg/kg/injection, schedule: Q01DX009 (ip), vehicle: other) was 100 % of control, the T/C [8] was 165 % of control and the T/C (dose: 100.0 mg/kg/injection, schedule: Q01DX009 (ip), vehicle: other) was 100 % of control. The T/C [9] was 240 % of control and 100 % of control.
`CC(C)(/C=C/c1ccccc1)C(=O)O` was tested, and the T/C [21] was 95 % of control, the T/C [5] was 102 % of control and the T/C [6] was 100 % of control.
For `Oc1cc(Cl)c(Cl)c(Cl)c1`, the T/C [3] was 102 % of control, the T/C [4] was 98 % of control and the T/C (dose: 400.0 mg/kg/injection, schedule: Q04DX002 (ip), vehicle: saline with Tween-80) was 97 % of control.
`COc1cc2ccc3c(c2cc1OC)CN(Cc1ccccc1)CC3` was tested, and the T/C [13] was 100 % of control, the T/C [14] was 109 % of control and the T/C [15] was 100 % of control.
`CCOC(=O)c1c(NC(C)=O)sc2c1CCCC2` was tested, and the T/C [21] was 104 % of control, the T/C [1] was 90 % of control and the T/C [5] was 100 % of control. For the same compound, the T/C [2] was 104 % of control, the T/C [6] was 100 % of control and the T/C (dose: 200.0 mg/kg/injection, schedule: Q04DX003 (ip), vehicle: saline with Tween-80) was 100 % of control.
`CC[N+]1(CC)CC[N+]2(CC1)CC[N+]1(CC[N+](CC)(CC)CC1)CC2` was tested, and the T/C [8] was 101 % of control, the T/C [9] was 101 % of control and the T/C [10] was 106 % of control.
With `N=c1c(C(N)=O)cnc2n1CCCCC2` the T/C [16] was 109 % of control.
